In data set [1] the test system is luciferase expression in the liver. Put plainly: Luciferase mRNA in vivo evaluation: luciferase expression in the liver after tail vein injection of FLuc mRNA lipid nanoparticles. To be noted: liver 4 hours after administration, Lipid Ratio B: 47.5% cationic lipid/10% DSPC/40.8% cholesterol/1.7% PEG lipid; for Liver Luc @ 0.3 mg/kg (ng luc/g liver): 0.3 mg mRNA/kg; for Liver Luc @ 1.0 mg/kg (ng luc/g liver): 1.0 mg mRNA/kg. More on the design: species or system mice. On the procedure:
Cationic lipid, DSPC, cholesterol and PEG-lipid were solubilized in ethanol at a molar ratio of 50:10:38.5:1.5 or 47.5:10:40.8:1.7. Lipid nanoparticles (LNP) were prepared at a total lipid to mRNA weight ratio of approximately 10:1 to 30:1. Briefly, the mRNA was diluted to 0.2 mg/mL in 10 to 50 mM citrate buffer, pH 4. Syringe pumps were used to mix the ethanolic lipid solution with the mRNA aqueous solution at a ratio of about 1:5 to 1:3 (vol/vol) with total flow rates above 15 ml/min. The ethanol was then removed and the external buffer replaced with PBS by dialysis. Finally, the lipid nanoparticles were filtered through a 0.2 μm pore sterile filter. Lipid nanoparticle particle size was approximately 55-95 nm diameter, and in some instances approximately 70-90 nm diameter as determined by quasi-elastic light scattering using a Malvern Zetasizer Nano ZS (Malvern, UK).
Studies were performed in 6-8 week old female C57BL/6 mice (Charles River) 8-10 week old CD-1 (Harlan) mice (Charles River) according to guidelines established by an institutional animal care committee (ACC) and the Canadian Council on Animal Care (CCAC). Varying doses of mRNA-lipid nanoparticle were systemically administered by tail vein injection and animals euthanized at a specific time point (e.g 4 hrs) post-administration. Liver and spleen were collected in pre-weighed tubes, weights determined, immediately snap frozen in liquid nitrogen and stored at −80° C. until processing for analysis.
For liver, approximately 50 mg was dissected for analyses in a 2 mL FastPrep tubes (MP Biomedicals, Solon Ohio). ¼″ ceramic sphere (MP Biomedicals) was added to each tube and 500 μL of Glo Lysis Buffer—GLB (Promega, Madison Wis.) equilibrated to room temperature was added to liver tissue. Liver tissues were homogenized with the FastPrep24 instrument (MP Biomedicals) at 2×6.0 m/s for 15 seconds. Homogenate was incubated at room temperature for 5 minutes prior to a 1:4 dilution in GLB and assessed using SteadyGlo Luciferase assay system (Promega). Specifically, 50 μL of diluted tissue homogenate was reacted with 50 μL of SteadyGlo substrate, shaken for 10 seconds followed by 5 minute incubation and then quantitated using a CentroXS^3 LB 960 luminometer (Berthold Technologies, Germany). The amount of protein assayed was determined by using the BCA protein assay kit (Pierce, Rockford Ill.). Relative luminescence units (RLU) were then normalized to total ug protein assayed. To convert RLU to ng luciferase a standard curve was generated with QuantiLum Recombinant Luciferase (Promega). Based in the data provided in FIG. 1, the four-hour time point was chosen for efficacy evaluation of the lipid formulations.
The FLuc mRNA (L-6107) from Trilink Biotechnologies will express a luciferase protein, originally isolated from the firefly, Photinus pyralis. FLuc is commonly used in mammalian cell culture to measure both gene expression and cell viability. It emits bioluminescence in the presence of the substrate, luciferin. This capped and polyadenylated mRNA is fully substituted with 5-methylcytidine and pseudouridine.
The cationic lipids shown in Table 2 have previously been tested with nucleic acids. For comparative purposes, these lipids were also used to formulate lipid nanoparticles containing the FLuc mRNA (L-6107) using an in line mixing method, as described in Example 1 and in PCT/US10/22614, which is hereby incorporated by reference in its entirety. […]

Data set [2] is described as follows: Determination of pKa of formulated lipids in lipid nanoparticles (TNS fluorescence assay). To be noted: pKa of cationic lipid in LNP (cationic lipid/DSPC/cholesterol/PEG-lipid 50/10/38.5/1.5 mol %), pH of half-maximal intensity. Format: physicochemical. On the procedure:
As described elsewhere, the pKa of formulated cationic lipids is correlated with the effectiveness of LNPs for delivery of nucleic acids (see Jayaraman et al, Angewandte Chemie, International Edition (2012), 51(34), 8529-8533; Semple et al, Nature Biotechnology 28, 172-176 (2010)). The preferred range of pKa is ˜5 to ˜7. […] Lipid nanoparticles comprising of cationic lipid/DSPC/cholesterol/PEG-lipid (50/10/38.5/1.5 mol %) in PBS at a concentration of 0.4 mM total lipid are prepared using the in-line process as described in Example 1. TNS was prepared as a 100 μM stock solution in distilled water. Vesicles were diluted to 24 μM lipid in 2 mL of buffered solutions containing, 10 mM HEPES, 10 mM MES, 10 mM ammonium acetate, 130 mM NaCl, where the pH ranged from 2.5 to 11. An aliquot of the TNS solution was added to give a final concentration of 1 μM and following vortex mixing fluorescence intensity was measured at room temperature in a SLM Aminco Series 2 Luminescence Spectrophotometer using excitation and emission wavelengths of 321 nm and 445 nm. A sigmoidal best fit analysis was applied to the fluorescence data and the pKa was measured as the pH giving rise to half-maximal fluorescence intensity (see FIG. 2).

By pKa is commonly meant the pH at which an ionisable group is half protonated. The low end stands for a group that gives up its proton readily, the high end for a group that holds its proton tightly. Regarding `CCCCCCC(CCCC)C(=O)OCCCCCCCCCN(CCCO)CCCCCCCCCOC(=O)C(CCCC)CCCCCC` (stereo not drawn) [Compound 45], in data set [1], the “Liver Luc @ 0.3 mg/kg (ng luc/g liver)” value came out at 1026 ± 199 ng luc/g liver and the “Liver Luc @ 1.0 mg/kg (ng luc/g liver)” value stood at 8806 ± 2836 ng luc/g liver. The molecule also showed a pKa in data set [2] of 6.25.

As for `CCCCCCCCC(CCCCCC)COC(=O)CCCCCCCN(CCO)CCCCCCCC(=O)OCC(CCCCCC)CCCCCCCC` (stereo not drawn) [Compound 46], in data set [1], the “Liver Luc @ 0.3 mg/kg (ng luc/g liver)” value turned out to be 4 ± 2 ng luc/g liver and the “Liver Luc @ 1.0 mg/kg (ng luc/g liver)” value is 5 ± 3 ng luc/g liver. Also, the pKa in data set [2] came out at 6.06.

The values are drawn from patent publication US11040112B2, “Lipids and lipid nanoparticle formulations for delivery of nucleic acids” (Acuitas Therapeutics, Inc., priority 2015, dated 2021).
